From PMC11537054, “A conserved two-component system senses intracellular iron levels and regulates redox balance in Mycobacterium spp” (Microbiology Spectrum, 2024) come the findings set out here.

This test has as its target PdtaS (PdtaS-eGFP) (Mycobacterium tuberculosis, UniProt P9WGL5). The test is described as follows: biochemical.

A word on the Kd: it is the concentration at which binding is half-saturated. Low readings indicate a tighter complex, high ones a looser complex.

Sequence of PdtaS (PdtaS-eGFP) (P9WGL5 whole entry): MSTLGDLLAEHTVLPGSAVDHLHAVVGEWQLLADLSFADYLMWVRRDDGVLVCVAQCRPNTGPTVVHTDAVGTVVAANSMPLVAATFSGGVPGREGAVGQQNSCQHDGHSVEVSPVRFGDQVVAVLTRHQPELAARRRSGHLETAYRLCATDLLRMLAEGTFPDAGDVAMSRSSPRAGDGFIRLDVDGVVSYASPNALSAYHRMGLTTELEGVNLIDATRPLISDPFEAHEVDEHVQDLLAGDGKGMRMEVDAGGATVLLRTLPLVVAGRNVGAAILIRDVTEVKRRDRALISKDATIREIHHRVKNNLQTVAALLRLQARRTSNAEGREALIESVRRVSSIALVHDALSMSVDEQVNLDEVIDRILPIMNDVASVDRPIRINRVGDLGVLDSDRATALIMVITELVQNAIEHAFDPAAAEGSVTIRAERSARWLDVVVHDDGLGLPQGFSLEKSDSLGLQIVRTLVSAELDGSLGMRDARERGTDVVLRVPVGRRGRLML

`C=CC1=C(C)C2=Cc3c(C=C)c(C)c4[n]3[Fe]([Cl])[n]3c(c(C)c(CCC(=O)O)c3=CC3=NC(=C4)C(C)=C3CCC(=O)O)=CC1=N2` [hemin]: the dissociation constant Kd was ~17.2 nM.
